Measured values published in ChEMBL document CHEMBL1221245, “A physical properties based approach for the exploration of a 4-hydroxybenzothiazolone series of beta2-adrenoceptor agonists as inhaled long-acting bronchodilators” (Bioorg Med Chem Lett, 2010).

How the values were obtained:
[1] = Agonist activity at beta 1 adrenoceptor in electrically-stimulated guinea pig left atrium at 1 uM; type: functional, Cavia porcellus, Cardiac atrium
[2] = target: Beta-2 adrenergic receptor (Homo sapiens, UniProt P07550)
Sequence of Beta-2 adrenergic receptor (P07550 whole entry): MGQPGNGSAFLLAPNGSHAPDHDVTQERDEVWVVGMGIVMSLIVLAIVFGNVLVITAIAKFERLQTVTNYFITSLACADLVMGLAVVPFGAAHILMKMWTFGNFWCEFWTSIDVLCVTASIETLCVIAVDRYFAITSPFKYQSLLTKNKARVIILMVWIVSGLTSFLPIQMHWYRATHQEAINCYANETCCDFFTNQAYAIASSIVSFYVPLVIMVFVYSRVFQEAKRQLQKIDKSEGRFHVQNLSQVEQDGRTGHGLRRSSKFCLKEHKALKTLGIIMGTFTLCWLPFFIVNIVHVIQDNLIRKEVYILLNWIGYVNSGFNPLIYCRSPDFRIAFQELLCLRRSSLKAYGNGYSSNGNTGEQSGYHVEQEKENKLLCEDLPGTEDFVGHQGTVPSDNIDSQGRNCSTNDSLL
Description: Displacement of [3H]CGP12177 from human beta2 adrenoceptor

[3] = target: Beta-1 adrenergic receptor (Homo sapiens, UniProt P08588)
Sequence of Beta-1 adrenergic receptor (P08588 whole entry): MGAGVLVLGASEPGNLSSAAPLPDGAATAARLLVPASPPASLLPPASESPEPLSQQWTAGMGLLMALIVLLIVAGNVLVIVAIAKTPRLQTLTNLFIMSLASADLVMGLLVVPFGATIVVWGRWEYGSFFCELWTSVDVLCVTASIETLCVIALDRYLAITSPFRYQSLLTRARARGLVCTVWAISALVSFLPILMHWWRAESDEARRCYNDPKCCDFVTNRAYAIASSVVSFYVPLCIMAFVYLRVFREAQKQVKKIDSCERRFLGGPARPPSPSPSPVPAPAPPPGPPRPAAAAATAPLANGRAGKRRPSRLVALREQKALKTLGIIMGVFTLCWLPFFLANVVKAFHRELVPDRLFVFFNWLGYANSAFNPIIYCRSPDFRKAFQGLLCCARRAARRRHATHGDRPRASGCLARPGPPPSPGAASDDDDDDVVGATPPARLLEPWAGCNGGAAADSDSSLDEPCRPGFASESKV
Description: Displacement of [3H]CGP12177 from human beta-1 adrenoceptor

Compound	Activity [1]	Ki [2]	Ki [3]
Cc1onc(-c2ccccc2)c1CNC[C@H](O)c1ccc(O)c2[nH]c(=O)sc12	19%	19.8 nM	902 nM
O=c1[nH]c2c(O)ccc([C@@H](O)CN[C@H]3CCCC[C@@H]3OCc3ccccc3)c2s1		362 nM	1060 nM
O=c1[nH]c2c(O)ccc([C@@H](O)CNCC34CC5CC(CC(C5)C3)C4)c2s1		26.5 nM	35.4 nM
CC(C)(C)CC(C)(C)NC[C@H](O)c1ccc(O)c2[nH]c(=O)sc12		1.9 nM	9.2 nM
O=c1[nH]c2c(O)ccc([C@@H](O)CNCCCCc3ccccc3)c2s1		1.8 nM	15 nM
CC1(C)[C@@H]2CC[C@@]1(C)[C@@H](NC[C@H](O)c1ccc(O)c3[nH]c(=O)sc13)C2		3.8 nM	450 nM
O=c1[nH]c2c(O)ccc([C@@H](O)CN[C@H]3CCCc4ccccc43)c2s1		30.2 nM	58.2 nM
CN(CCCNC[C@H](O)c1ccc(O)c2[nH]c(=O)sc12)c1ccccc1		0.3 nM	8.4 nM
C[C@H](NC[C@H](O)c1ccc(O)c2[nH]c(=O)sc12)c1ccc2ccccc2c1		48.9 nM	33.7 nM
CC(C)(Cc1ccccc1)NC[C@H](O)c1ccc(O)c2[nH]c(=O)sc12		0.4 nM	1.8 nM
CCCCN(CCCC)CCNC[C@H](O)c1ccc(O)c2[nH]c(=O)sc12		18.3 nM	31.3 nM
O=c1[nH]c2c(O)ccc([C@@H](O)CNCCCc3ccccc3)c2s1		1.2 nM	2 nM
O=c1[nH]c2c(O)ccc([C@@H](O)CN[C@@H]3CCCC[C@H]3OCc3ccccc3)c2s1	13%	7.2 nM	40.4 nM
O=c1[nH]c2c(O)ccc([C@@H](O)CNCCOc3ccccc3)c2s1		4.4 nM	17.8 nM
CC1(C)[C@@H]2CC[C@]1(C)[C@@H](NC[C@H](O)c1ccc(O)c3[nH]c(=O)sc13)C2		40.4 nM	1510 nM
O=c1[nH]c2c(O)ccc([C@@H](O)CNCCSc3ccc(Cl)cc3)c2s1		3 nM	1.7 nM
CNCC(O)c1ccc(O)c2nc(O)sc12 (configuration not stated)		5 nM	60.6 nM
O=c1[nH]c2c(O)ccc([C@@H](O)CNC3CCCCCC3)c2s1		11.8 nM	78.8 nM
C[C@H](NC[C@H](O)c1ccc(O)c2[nH]c(=O)sc12)C1CCCCC1		25.1 nM	39.3 nM
C[C@@H](NC[C@H](O)c1ccc(O)c2[nH]c(=O)sc12)C1CCCCC1	69%	1 nM	1.5 nM
O=c1[nH]c2c(O)ccc([C@@H](O)CN[C@@H]3CCCc4ccccc43)c2s1		9.4 nM	112 nM
O=c1[nH]c2c(O)ccc([C@@H](O)CNC3CCCCC3C3CCCCC3)c2s1 (some centres not stated)		151 nM	662 nM
O=c1[nH]c2c(O)ccc([C@@H](O)CNC3CCN(CCN4CCCCCC4)CC3)c2s1		6.3 nM	187 nM
CCC(CC)CNC[C@H](O)c1ccc(O)c2[nH]c(=O)sc12		24.7 nM	169 nM
O=C(NC1CCCCC1)[C@H](Cc1ccccc1)NC[C@H](O)c1ccc(O)c2[nH]c(=O)sc12		> 1000 nM	> 1000 nM
C[C@@H](NC[C@H](O)c1ccc(O)c2[nH]c(=O)sc12)c1ccc2ccccc2c1		2.7 nM	1.4 nM
O=c1[nH]c2c(O)ccc([C@@H](O)CNCCc3ccccc3)c2s1		1.8 nM	3.8 nM
